Reference: the NIST ThermoML archive (doi:10.1016/j.fluid.2015.04.017)

Assay: refractive index (Na D-line) (dimensionless); xn = mol fraction of the nth substance listed
Conditions: 101 kPa, Liquid, Standard Abbe refractometry

CCOC(=O)C(C)O (stereo not drawn) [DL-ethyl lactate] + CCC(C)=O
refractive index
Conditions | x1 = 0.0999 | x1 = 0.1999 | x1 = 0.3001 | x1 = 0.4001 | x1 = 0.5 | x1 = 0.5998 | x1 = 0.6999 | x1 = 0.8 | x1 = 0.9001 | x1 = 1
288.15 K | 1.3864 | 1.39058 | 1.39458 | 1.39808 | 1.40142 | 1.40472 | 1.40745 | 1.41049 | 1.41285 | 1.41571
293.15 K | 1.38393 | 1.38819 | 1.39209 | 1.39574 | 1.39914 | 1.40234 | 1.40537 | 1.40818 | 1.41078 | 1.41307
298.15 K | 1.38138 | 1.38566 | 1.38959 | 1.3933 | 1.39673 | 1.39997 | 1.40302 | 1.40585 | 1.40846 | 1.41076
303.15 K | 1.37882 | 1.38314 | 1.38712 | 1.39082 | 1.39428 | 1.39754 | 1.40061 | 1.40346 | 1.4061 | 1.40843
308.15 K | 1.37622 | 1.38055 | 1.38457 | 1.38833 | 1.39183 | 1.39511 | 1.39819 | 1.40105 | 1.40371 | 1.4061
313.15 K | 1.37361 | 1.37791 | 1.38199 | 1.38577 | 1.38931 | 1.39263 | 1.39575 | 1.39864 | 1.40133 | 1.40374
318.15 K | 1.37092 | 1.37524 | 1.37932 | 1.38316 | 1.38671 | 1.39001 | 1.39312 | 1.396 | 1.39886 | 1.40136
323.15 K | 1.36811 | 1.3724 | 1.3765 | 1.38033 | 1.38393 | 1.38737 | 1.39051 | 1.39348 | 1.39642 | 1.39898
